Article PMC12655621 (Pharmaceuticals, 2025)

Assays:
U87 MG = tested on: U87 MG; design: method as in earlier work; settings: human U87 MG glioma cells; errors omitted; ref 19 (compounds 8 and 9: ref 13); cited from earlier work
F98 = tested on: F98; design: method as in earlier work; settings: F98 rat glioma cells; errors omitted; ref 19 (compounds 8 and 9: ref 13); cited from earlier work
C6 = tested on: C6; design: method as in earlier work; settings: C6 glioma cells; errors omitted; ref 19 (compounds 8 and 9: ref 13); cited from earlier work
[1] = tested on: Mix of primary glial cell culture; design: method as in earlier work; settings: mix of primary glial cell culture (healthy cells); errors omitted; ref 19 (compounds 8 and 9: ref 13); cited from earlier work
[2] = Shake-flask logD7.4 n-octanol/PBS; assay type: physicochemical; settings: n-octanol/PBS pH 7.4, shake-flask, room temperature
Experimental: A PBS (pH 7.4) solution was saturated with n-octanol, and n-octanol was saturated with PBS (pH 7.4) by vigorous shaking, followed by equilibration for at least 24 h to ensure complete phase separation. The reference compound 4-chloro-6,7-bis(2-methoxyethoxy)quinazoline and analogs 1–7 were dissolved in the octanol phase (previously saturated with PBS), and equal volumes of the aqueous phase (previously saturated with octanol) were added. Final assay solutions were prepared at 10 μM by diluting 2 μL of a 5 mM stock solution into 1 mL of total volume. The biphasic mixtures were shaken for 24 h at room temperature. After equilibration, both the octanolic and aqueous phases were analyzed by UV–visible spectrophotometry using a Shimadzu UV-1603. […] LogD7.4 values were calculated as […]. Each determination was performed in triplicate. Regression analyses and curve fittings were performed using GraphPad Prism 8.0 software (GraphPad Software Inc., LaJolla, CA, USA).

Row | logD at 24 h [2] | Structure (SMILES) | IC50 (U87 MG) [µM] | IC50 (F98) [µM] | IC50 (C6) [µM] | IC50 [1] [µM]
1 | – | C#Cc1cccc(Nc2ncnc3cc(OCCOC)c(OCCOC)cc23)c1 [Erl, erlotinib] | 63 | > 100 | > 100 | > 100
2 | 1.02 | COCCOc1cc2ncnc(Cl)c2cc1OCCOC [4-chloro-6,7-bis(2-methoxyethoxy)quinazoline] | – | – | – | –
